≈ marks a conversion by molar mass, not a printed value.
Key:
Assay type in all cases: cell-based
[1] = system: Enterococcus faecalis ATCC 51299 (VRE); experiment: MIC, Gram-positive panel; settings: Enterococcus faecalis ATCC 51299 (VRE); read-out: MIC
How it was run: (§1)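 Strains are first grown aerobically overnight at 37° C on tryptone soya agar. A 0.5 McFarland suspension is then diluted in cation-adjusted Mueller-Hinton broth, compounds are serially diluted across the plate with this inoculum, and plates stand aerobically at 37° C for 18-20 h.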

[2] = system: MRSA NRS 385; experiment: MIC, Gram-positive panel; settings: Staphylococcus aureus; MRSA NRS 385; read-out: MIC
How it was run: (§2)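 Overnight TSA cultures (37° C) → 0.5 McFarland suspension → dilution in CAMHB; test compounds serially diluted in inoculated broth; aerobic incubation at 37° C, 18-20 h.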

[3] = system: Enterococcus faecium ATCC 700221 (VRE); experiment: MIC, Gram-positive panel; settings: Enterococcus faecium ATCC 700221 (VRE); read-out: MIC
How it was run: as §1

[4] = system: S. pneumoniae ATCC 51916; experiment: MIC, Gram-positive panel; settings: Streptococcus pneumoniae, ATCC51916; S. pneumoniae ATCC 51916; read-out: MIC
How it was run: as §1

[5] = system: S. aureus NRS 107; experiment: MIC, Gram-positive panel; settings: Staphylococcus aureus, NRS107; S. aureus NRS 107; read-out: MIC
How it was run: as §2

[6] = system: Methicillin-resistant S. epidermidis NRS101; experiment: MIC, Gram-positive panel; settings: Staphylococcus epidermidis; Methicillin-resistant S. epidermidis NRS101; read-out: MIC
How it was run: as §2

[7] = system: S. aureus ATCC 6538; experiment: MIC, Gram-positive panel; settings: Staphylococcus aureus, ATCC6538; S. aureus ATCC 6538; read-out: MIC
How it was run: as §2

[8] = system: MRSA NRS 123; experiment: MIC, Gram-positive panel; settings: Staphylococcus aureus; MRSA NRS 123; read-out: MIC
How it was run: as §2

[9] = system: MRSA NRS 119; experiment: MIC, Gram-positive panel; settings: Staphylococcus aureus; MRSA NRS 119; read-out: MIC
How it was run: as §2

[10] = system: Methicillin-resistant S. pneumoniae ATCC 700677; experiment: MIC, Gram-positive panel; settings: Streptococcus pneumoniae, ATCC700677; Methicillin-resistant S. pneumoniae ATCC 700677; read-out: MIC
How it was run: as §1

[11] = system: MRSA NRS 386; experiment: MIC, Gram-positive panel; settings: Staphylococcus aureus; MRSA NRS 386; read-out: MIC
How it was run: as §2

[12] = system: human colorectal adenocarcinoma (Caco-2) cell; experiment: In vitro cytotoxicity, MTS assay
Method: Compounds 144, 148, 151, 155, 158, and 187 were assayed (at concentrations of 16, 32, and 64 μg/mL) against a human colorectal adenocarcinoma (Caco-2) cell to determine the potential toxic effect to mammalian cells in vitro. Briefly, cells were cultured in Dulbecco's Modified Eagle Medium (DMEM) supplemented with 10% fetal bovine serum (FBS), non-essential amino acids (1×), penicillin-streptomycin at 37° C. in presence of 5% CO2. Control cells received DMSO alone at a concentration equal to that in drug-treated wells. The cells were incubated with the compounds (in triplicate) in a 96-well plate at 37° C. with 5% CO2 for two hours. This was followed by the subsequent addition of the assay reagent MTS 3-(4,5-dimethylthiazol-2-yl)-5-(3-carboxymethoxyphenyl)-2-(4-sulfophenyl)-2H-tetrazolium) (Promega, Madison, Wis., USA) and the plate was incubated for three to four hours. Absorbance readings (at OD490) were recorded using a kinetic microplate reader (Molecular Devices, Sunnyvale, Calif., USA). The quantity of viable cells after treatment with each compound was expressed as a percentage of the viability of DMSO-treated control cells (average of triplicate wells±standard deviation).
FIG. 3. Analyzing the toxicity of 144, 148, 151, 155, 158, and 187 compounds (tested in triplicates at 16, 32 and 64 μg/mL) against human colorectal cells (Caco-2) using the MTS 3-(4,5-dimethylthiazol-2-yl)-5-(3-carboxymethoxyphenyl)-2-(4-sulfophenyl)-2H-tetrazolium) assay. Results are presented as percent viable cells relative to DMSO (negative control) to determine a baseline measurement for the cytotoxic impact of each compound. The absorbance values represent an average of three samples analyzed for each compound. Error bars represent standard deviation values. The data were analyzed via a two-way ANOVA with post-hoc Dunnett's test for multiple comparisons. An asterisk (*) denotes statistical significance (P<0.05) between results for compounds and DMSO.

SMILES | MIC [1] [µg/mL] | MIC [2] [µg/mL] | MIC [3] [µg/mL] | MIC [4] [µg/mL] | MIC [5] [µg/mL] | MIC [6] [µg/mL] | MIC [7] [µg/mL] | MIC [8] [µg/mL] | MIC [9] [µg/mL] | MIC [10] [µg/mL] | MIC [11] [µg/mL] | viable cells ([12]; Caco-2, at 32 μg/mL, relative to DMSO) [%] | non-toxic concentration to Caco-2 cells ([12]; Caco-2, two hours incubation, MTS) [µg/mL]
C=C(C(=O)OC)C(c1ccc2ccccc2c1)C(O)c1cccc2ccccc12 (stereo not shown) [Compound 148] | > 64 | 1 (≈ 2.61 µM) | > 64 | 1 (≈ 2.61 µM) | 1 (≈ 2.61 µM) | 1 (≈ 2.61 µM) | 1 (≈ 2.61 µM) | 1 (≈ 2.61 µM) | 1 (≈ 2.61 µM) | 1 (≈ 2.61 µM) | 1 (≈ 2.61 µM) | – | –
C=C1C(=O)O[C@H](c2ccccc2)[C@@H]1c1cccc2ccccc12 [Compound 151] | > 64 | 1 (≈ 3.33 µM) | > 64 | 4 (≈ 13.3 µM) | 2 (≈ 6.66 µM) | 8 (≈ 26.6 µM) | 2 (≈ 6.66 µM) | 2 (≈ 6.66 µM) | 2 (≈ 6.66 µM) | 4 (≈ 13.3 µM) | 1 (≈ 3.33 µM) | – | –
C=C1C(=O)O[C@H](c2cccc3ccccc23)[C@@H]1c1ccc2ccccc2c1 [Compound 155] | > 64 | 1 (≈ 2.85 µM) | > 64 | 1 (≈ 2.85 µM) | 1 (≈ 2.85 µM) | 1 (≈ 2.85 µM) | 1 (≈ 2.85 µM) | 1 (≈ 2.85 µM) | 1 (≈ 2.85 µM) | 1 (≈ 2.85 µM) | 1 (≈ 2.85 µM) | 100 | ≤ 32
C=C1C(=O)O[C@H](c2ccc3ccccc3c2)[C@@H]1c1ccc2ccccc2c1 [Compound 158] | > 64 | 1 (≈ 2.85 µM) | > 64 | 2 (≈ 5.71 µM) | 1 (≈ 2.85 µM) | 0.5 (≈ 1.43 µM) | 1 (≈ 2.85 µM) | 1 (≈ 2.85 µM) | 1 (≈ 2.85 µM) | 2 (≈ 5.71 µM) | 1 (≈ 2.85 µM) | – | –
